Experimental data: patent US12240858B2 (ANBOGEN THERAPEUTICS, INC, priority 2021, dated 2025)
≈ marks a conversion by molar mass, not a printed value. Where a name gives a salt, the structure may show the parent alone. Read-outs that look alike come from different tables or passages of the source.

What was measured:
[1] = Stability of solid forms under stress conditions; format: physicochemical
[2] = Weight loss before melting (TGA) of solid forms; format: physicochemical
[3] = Pharmacokinetics study, rat IV and PO; format: in vivo
[4] = Solubility 24 hrs in FaSSIF, FeSSIF, SGF, H2O; format: physicochemical; conditions: thermodynamic from solid
From the text: In Table 3, “FaSSIF” stands for “Fasted state simulated intestinal fluid”; “FeSSIF” stands for “Fed state simulated intestinal fluid”; “SGF” stands for “Simulated gastric fluid”.

[5] = 20 mg/kg, listed as ABT-101 S0*
[6] = FeSSIF (fed state simulated intestinal fluid), fessif
[7] = SGF (simulated gastric fluid), simulated gastric fluid, SGF

Stability ([1]; 25° C./60% RH, 1 week) | Stability ([1]; 40° C./75% RH, 1 week) | Stability ([1]; 80° C., 24 hrs) | Weight loss before melting (%) (TGA) [2] | increased Cmax, AUC and F (%) compared to amorphous form (ABT-101 S0) [3] | Cmax ([3]; 20 mg/kg) | F (%) ([3]; 20 mg/kg) | Cmax [3, 5] | F (%) [3, 5] | Tmax [3, 5] | half-life ([3]; rat, in vivo, po, 20 mg/kg) | Tmax ([3]; rat, in vivo, po, 20 mg/kg, read-out: Tmax) | solubility at 24 h [4, 6] | solubility at 24 h [4, 7] | solubility at 24 h ([4]; FaSSIF (fasted state simulated intestinal fluid), fassif) | solubility at 24 h ([4]; water, H2O) | SMILES
Stable | Stable | Stable | 0.6 wt % |  |  |  |  |  |  |  |  | 410 µg/mL (≈ 768 µM) | 9100 µg/mL (≈ 17100 µM) | 320 µg/mL (≈ 600 µM) | 20 µg/mL (≈ 37.5 µM) | CN(C)C/C=C/C(=O)Nc1cccc(-c2c(-c3ccccc3)oc3ncnc(N[C@H](CO)c4ccccc4)c23)c1 [Free Base, (S, E)-4-(dimethylamino)-N-(3-(4-(2-hydroxy-1-phenylethylamino)-6-phenylfuro[2,3-d]pyrimidin-5-yl)phenyl)but-2-enamide]
Stable | Stable | Stable | 3.6 wt % |  |  |  |  |  |  |  |  |  |  |  |  | CN(C)C/C=C/C(=O)Nc1cccc(-c2c(-c3ccccc3)oc3ncnc(NC(CO)c4ccccc4)c23)c1 (stereo not drawn) [Hydrochloride]

The next lines start with the compound.

SMILES | Stability ([1]; 25° C./60% RH, 1 week) | Stability ([1]; 40° C./75% RH, 1 week) | Stability ([1]; 80° C., 24 hrs) | Weight loss before melting (%) (TGA) [2] | increased Cmax, AUC and F (%) compared to amorphous form (ABT-101 S0) [3] | Cmax ([3]; 20 mg/kg) | F (%) ([3]; 20 mg/kg) | Cmax [3, 5] | F (%) [3, 5] | Tmax [3, 5] | half-life ([3]; rat, in vivo, po, 20 mg/kg) | Tmax ([3]; rat, in vivo, po, 20 mg/kg, read-out: Tmax) | solubility at 24 h [4, 6] | solubility at 24 h [4, 7] | solubility at 24 h ([4]; FaSSIF (fasted state simulated intestinal fluid), fassif) | solubility at 24 h ([4]; water, H2O)
CN(C)C/C=C/C(=O)Nc1cccc(-c2c(-c3ccccc3)oc3ncnc(NC(CO)c4ccccc4)c23)c1 (stereo not drawn) [Succinate] | Stable | Unstable | Stable | 0.5 wt % |  |  |  |  |  |  |  |  |  |  |  | 
CN(C)C/C=C/C(=O)Nc1cccc(-c2c(-c3ccccc3)oc3ncnc(N[C@H](CO)c4ccccc4)c23)c1 [ABT-101 S0, (S, E)-4-(dimethylamino)-N-(3-(4-(2-hydroxy-1-phenylethylamino)-6-phenylfuro[2,3-d]pyrimidin-5-yl)phenyl)but-2-enamide] |  |  |  |  | 1.9˜3 times | 136 ng/mL | 19% | 508 ng/mL | 42% | 3.3 h | 4.7 h | 4 h |  |  |  | 
CN(C)C/C=C/C(=O)Nc1cccc(-c2c(-c3ccccc3)oc3ncnc(NC(CO)c4ccccc4)c23)c1 (stereo not drawn) [Glycollate] | Stable | Unstable | Stable | 0.7 wt % |  |  |  |  |  |  |  |  | > 11300 µg/mL | > 10900 µg/mL |  | 
